Measurements: US6087358A (priority 1997, dated 2000)
Converted amounts (≈) assume the structure as drawn. Like-named read-outs stand apart in the source and are kept apart here.

Experiments:
[1] = test system: Helicobacter pylori; test: In vitro inhibition of Helicobacter pylori (broth microdilution MIC); details: Helicobacter pylori
[2] = test system: Cryptosporidium parvum; test: Inhibition of Cryptosporidium parvum (ELISA, infected HCT-8 monolayers); assay type: cell-based; details: Cryptosporidium parvum, HCT-8, 48 h, read-out: Percent Inhibition of C. parvum
Description: Susceptibility testing against Cryptosporidium was performed according to published procedures (K. Woods, M. Nesterenko, S. Upton, "Development of a microtiter ELISA to quantify development of Cryptosporidium parvum in vitro," FEMS Microbiology Letters, 128:89-94 (1995).
Compounds were solubilized to a concentration of 100 mg/mL in 100% DMSO. DMSO solutions of test compounds were added to the test wells of a microplate at a volume that produced a final concentration of DMSO of 0.2%. Monolayers of human ileocecal adenocarcinoma cells (HCT-8) were prepared by growth in RPMI 1640 medium in 96-Well tissue culture trays for 24 h. Oocysts of C. parvum were allowed to excyst in 10% bleach for 10 min prior to use. Monolayers were then infected with 2-3×10^4 oocysts/well and incubated in the presence or absence of compound for 48 h at 35° C. in 5% CO2 and 95% humidity. Background consisted of wells containing killed oocysts (freeze thaw cycle following 30 sec exposure to liquid nitrogen). Growth control wells were infected with 2-3×10^4 oocysts/well in the absence of test compounds. At the end of incubation, wells were washed and fixed by adding 100 uL of 4% formalin in phosphate buffered saline (pH 7.3) per well for 2 h. After blocking with 1% bovine serum albumin, and 0.002% Tween 20, 50 uL of rat anti-Cryptosporidium membrane protein antiserum was added. After 30 min, wells were washed in PBS and 50 uL of secondary antibody (goat anti-rat antibody conjugated with horseradish peroxidase) was added. After 20-30 min, wells were washed again in PBS and 50 uL of 3,3',5,5'-tetramethylbenzidine solution was added. Plates were allowed to develop for 10-15 min and the optical density was read at 630 nm. Percent inhibition was calculated by comparing the optical density of the drug treated group to that of the untreated control.

[3] = test system: Mycobacterium bovis BCG (recombinant strain); test: microbe, parasite or virus in culture; assay type: cell-based; details: Mycobacterium tuberculosis variant bovis BCG, BCG, 144 h; 6 days 37° C.; read-out: MIC, column A, 3(S) compounds
[4] = test system: Clostridium difficile ATCC 17857; test: In vitro inhibition of Clostridium difficile (Oxyrase broth microdilution MIC); assay type: cell-based; details: Clostridioides difficile, ATCC17857; Clostridium difficile ATCC 17857, Oxyrase broth; read-out: MIC, column D, 3(S) compounds
[5] = test system: Helicobacter felis; test: In vivo activity against Helicobacter felis in mice (urease test of stomach biopsy); design: species or system in female CD-1 mice; details: 50 mg/kg three times daily oral gavage, CM-2, four days; vehicle and untreated 100
Description: Female CD-1 mice weighing 30 grams were infected by oral gavage with 10^8 -10^9 colony forming units of H. felis. This infection process was repeated two, and four days, thereafter. Colonization of the stomach was allowed to occur over a seven day period. Animals were segregated into groups of five, and were treated three times daily by oral gavage with 50 mg/kg of test drugs prepared in the CM-2 formulation vehicle (Example 52). Treatment continued for four days. One group of animals received an equal volume of formulation vehicle alone, to ensure that the vehicle had no effect on the Helicobacter infection. A separate untreated control group was also included.
All animals were then sacrificed, the stomachs were removed, opened, and the contents washed out. A five millimeter diameter biopsy was removed, and transferred to a urease test solution containing a pH-sensitive dye, which was then incubated at 37° C. incubator for 24 hours. A blue or purple coloration in this test solution signifies a positive reaction, indicating the continued presence of viable Helicobacter bacteria; a negative result is indicated by a yellow coloration. Viable Helicobacter bacteria produce a urease enzyme which converts urea, of which there is an abundant supply in the stomach (from saliva and gastric juices), into bicarbonate and ammonia, which are strong bases. This mechanism is considered to provide conditions more amenable to the survival of Helicobacter in the otherwise acidic conditions prevalent in the stomach.

[6] = test system: Mycobacterium tuberculosis (rMTB); test: In vivo antimycobacterial activity against M. tuberculosis (rMTB) in lungs of mice; design: species or system Mycobacterium tuberculosis Erdman, in female BALB/c mice; details: 25 mg/kg daily oral gavage, CM-2, 10 days, control 117,258 (PA-824, 636, 1297) or 22,751 (others)
[7] = test system: Mycobacterium tuberculosis (rMTB); test: In vivo antimycobacterial activity against M. tuberculosis (rMTB) in spleens of mice; design: species or system Mycobacterium tuberculosis Erdman, in female BALB/c mice; details: 25 mg/kg daily oral gavage, CM-2, 10 days, control 422,866 (PA-824, 636, 1297) or 362,274 (others)
[8] = test system: Helicobacter pylori Strain 4187E; test: In vivo activity against Helicobacter pylori strain 4187E in mice; design: species or system in outbred female white mice; details: oral gavage, four days
From the text: Outbred female white mice (20 grams) were infected by oral gavage with 10^7 -10^8 colony forming units of H. pylori strain 4187E (originally isolated from a patient with a duodenal ulcer). […] Treatment continued for four days. Clarithromycin, administered at the same concentration and for the same duration, was included as a positive control. One group of animals also received an equal volume of formulation vehicle alone, to provide a negative control.
Five days after cessation of treatment, all animals were sacrificed, the stomachs were removed, opened, and the contents washed out. The entire mucosal surface was then spread evenly over the surface of an agar plate containing antibiotics appropriate for the prevention of growth of microorganisms other than Helicobacter spp. After seven days incubation under microaeropilic conditions at 37° C., culture plates were evaluated for bacterial growth.

`CCCCCCCCC(=O)N[C@@H]1COc2nc([N+](=O)[O-])cn2C1` [PA-1139] showed an MIC ([1]; 72 h, read-out: MIC against Helicobacter pylori, strain 17 (Table 5A)) greater than 25 µg/mL, an MIC ([1]; 72 h, read-out: MIC against Helicobacter pylori, strain 19 (Table 5A)) of 1.5 µg/mL (≈ 4.62 µM) and an MIC ([1]; 72 h, read-out: MIC against Helicobacter pylori, strain 20 (Table 5A)) of 0.8 µg/mL (≈ 2.47 µM). It also gave an MIC ([1]; 72 h, read-out: MIC against Helicobacter pylori, strain 40 (Table 5A)) of 0.8 µg/mL (≈ 2.47 µM), an MIC ([1]; 72 h, read-out: MIC against Helicobacter pylori, strain 43 (Table 5A)) of 1.5 µg/mL (≈ 4.62 µM) and an MIC ([1]; 72 h, read-out: MIC against Helicobacter pylori, strain 76 (Table 5A)) of 25 µg/mL (≈ 77.1 µM). The MIC ([1]; ATCC43504, 72 h, read-out: MIC against Helicobacter pylori, strain ATCC 43504 (Table 5A)) was greater than 25 µg/mL, the inhibition at 25 µg/mL ([2]; 25 μg/mL) was -13% and the inhibition at 50 µg/mL ([2]; 50 μg/mL) was -3%. It also gave an inhibition at 100 µg/mL ([2]; 100 μg/mL) of 56%, an inhibition at 200 µg/mL ([2]; 200 μg/mL) of 98.9% and an MIC [3] of 0.06 µg/mL (≈ 0.185 µM). For the same compound, the MIC [4] was 3.12 µg/mL (≈ 9.62 µM).

`O=C(Nc1ccc(OC(F)(F)F)cc1)O[C@@H]1COc2nc([N+](=O)[O-])cn2C1` [PA-1297, 4-(Trifluoromethoxy)phenyl Carbamate of 3S Hydroxy-6-nitro-2H-3,4-dihydo-[2-1b]imidazopyran] was tested, and the MIC [3] was 0.015 µg/mL (≈ 0.0386 µM), the “% Survival” value [5] was 100% and the MIC [4] was 0.78 µg/mL (≈ 2.01 µM). For the same compound, the “Average RLUs, M. tuberculosis (rMTB) in lungs” value (“Average RLUs … in lungs” below) [6] was 3,354 RLUs, the “Average RLUs, M. tuberculosis (rMTB) in spleens” value (“Average RLUs … in spleens” below) [7] was 66,473 RLUs and the “% Eradication” value ([8]; once daily 25 mg/kg) was 0%. For the same compound, the “% Eradication” value ([8]; twice daily 5 mg/kg) was 0% and the “% Eradication” value ([8]; twice daily 50 mg/kg) was 0%.

With `O=C(Nc1ccc(C(F)(F)F)cc1)O[C@@H]1COc2nc([N+](=O)[O-])cn2C1` [PA-1327, 4-(Trifluoromethyl)phenyl Carbamate of 3S Hydroxy-6-nitro-2H-3,4-dihydo-[2-1b]imidazopyran] the MIC [3] was 0.25 µg/mL (≈ 0.672 µM), the “Average RLUs … in lungs” value [6] was 1,561 RLUs and the “Average RLUs … in spleens” value [7] was 68,362 RLUs.

For `O=C(NCc1ccc(OC(F)(F)F)cc1)O[C@@H]1COc2nc([N+](=O)[O-])cn2C1` [PA-1328, 4-(Trifluoromethoxy)benzyl Carbamate of 3S Hydroxy-6-nitro-2H-3,4-dihydo-[2-1b]imidazopyran], the MIC [3] was 0.03 µg/mL (≈ 0.0746 µM), the “Average RLUs … in lungs” value [6] was 3,000 RLUs and the “Average RLUs … in spleens” value [7] was 251,264 RLUs.

`O=C(N[C@@H]1COc2nc([N+](=O)[O-])cn2C1)OCc1ccc(OC(F)(F)F)cc1` [PA-1343] showed an MIC ([1]; 72 h, read-out: MIC against Helicobacter pylori, strain B40, Met-S, Clar-S (Table 5B)) of 0.8 µg/mL (≈ 1.99 µM), an MIC ([1]; 72 h, read-out: MIC against Helicobacter pylori, strain B76, Met-R, Clar-S (Table 5B)) of 12 µg/mL (≈ 29.8 µM) and an MIC ([1]; 72 h, read-out: MIC against Helicobacter pylori, strain C1649, Met-R, Clar-R (Table 5B)) of 12 µg/mL (≈ 29.8 µM). For the same compound, the MIC ([1]; 72 h, read-out: MIC against Helicobacter pylori, strain C11403, Met-S, Clar-R (Table 5B)) was 1.5 µg/mL (≈ 3.73 µM), the MIC ([1]; 72 h, read-out: MIC against Helicobacter pylori, strain C19765 (Table 5B)) was 12 µg/mL (≈ 29.8 µM) and the MIC ([1]; 72 h, read-out: MIC against Helicobacter pylori, strain RD26, Met-S, Clar-S (Table 5B)) was 3 µg/mL (≈ 7.46 µM). The MIC ([1]; 72 h, read-out: MIC against Helicobacter pylori, strain rd26, Met-S, Clar-S (Table 5B)) was 2 µg/mL (≈ 4.97 µM), the MIC ([1]; ATCC43504, 72 h, read-out: MIC against Helicobacter pylori, strain ATCC 43504, Met-R, Clar-S (Table 5B)) was 10 µg/mL (≈ 24.9 µM) and the MIC ([1]; ATCC43526, 72 h, read-out: MIC against Helicobacter pylori, strain ATCC 43526, Met-R, Clar-S (Table 5B)) was 12 µg/mL (≈ 29.8 µM). For the same compound, the MIC ([1]; ATCC43579, 72 h, read-out: MIC against Helicobacter pylori, strain ATCC 43579, Met-S, Clar-S (Table 5B)) was 1.5 µg/mL (≈ 3.73 µM), the MIC ([1]; ATCC43629, 72 h, read-out: MIC against Helicobacter pylori, strain ATCC 43629, Met-S, Clar-S (Table 5B)) was 3 µg/mL (≈ 7.46 µM) and the MIC [3] was 0.015 µg/mL (≈ 0.0373 µM). For the same compound, the “% Survival” value [5] was 00%, the “Average RLUs … in lungs” value [6] was 606 RLUs and the “Average RLUs … in spleens” value [7] was 51,928 RLUs.
